Experimental data published in patent US5824647A, “Chemotactic wound healing peptides” (priority 1995, dated 1998).
“Also recorded” adds a separate entry of the source.

Columns and labels:
[1] = test system: human peripheral blood monocytes; assay: Monocyte chemotaxis in modified Boyden chambers; format: cell-based; settings: for Mean Monocytes per 20 OIF + SEM: Experiment 2, peptide in lower compartment; for monocyte chemotaxis / migration (in words): peptide in lower compartment of modified Boyden chamber
Excerpt: (§1) Human peripheral blood neutrophils and monocytes, isolated from whole blood using standard techniques may also be used in the chemotaxis assays, in a manner similar to infant foreskin fibroblasts, to measure the chemotactic activity of the peptides towards inflammatory cells. Such cells may also be maintained in supplemented MEM as above, to which 5-10% FCS may be added. When using neutrophils and monocytes, instead of fibroblasts, the polycarbonate filters used in the modified Boyden chambers had pore sizes of 2 and 3 microns, respectively. As above, all assays were carried out in quadruplicate.
The following 7-mer peptides (peptides 368-374, corresponding to amino acids 368-374 of human TGF-β1): VYYVGRK (SEQ ID NO. 1), LYYIGKT (SEQ ID NO. 2), LYYVGRT (SEQ ID NO. 3), IYYVGRN (SEQ ID NO. 4) and IYYVGRT (SEQ ID NO. 5) were synthesized by the Merrifield technique, purified by HPLC, and tested at different concentrations in the same assay for their ability to stimulate chemotaxis of human peripheral blood monocytes in vitro modified Boyden chambers.

[2] = test system: fibroblasts; assay: HLA-DR, fibroblast effects; format: cell-based; design: key: NE = No Effect; settings: Table II summary
[3] = test system: infant foreskin fibroblasts; assay: Collagen production by fibroblasts (modified Peterofsky-Diegelman assay); format: cell-based, human; settings: [3H]proline incorporation into collagenase-sensitive protein
Experimental: The peptides of the invention were also found to stimulate collagen production by fibroblasts. Collagen production by fibroblasts in response to the peptides of the present invention was measured utilizing a modified Peterofsky-Diegelman assay. The assay is used to determine whether the peptides of the invention stimulate or inhibit collagen production by fibroblasts.
Low passage (4-12 subpassages) infant foreskin fibroblasts were plated out at a density of 10^5 cells/well in Falcon 3008 multiwell plates in complete maintenance medium containing 10% FCS. After cells reached confluency (72 hr), the medium was changed daily for 3 days, each time being replaced with serum-free maintenance medium containing fresh ascorbic acid. Samples (50 μl) were added to triplicate wells containing 450 μl serum-free MEM supplemented with fresh ascorbic acid and [^3 H]-proline (sp. act. 20 Ci/mmole), but no non-essential amino acids. After an additional 24 hr of culture, supernatants were reacted with protease-free bacterial collagenase to digest all collagen. Similar aliquots of unreacted supernatants and bacterial collagenase-treated supernatants were precipitated with cold 10% trichloroacetic acid (TCA) and were centrifuged for 5 minutes in a Beckman microfuge. Aliquots of the supernatants, after TCA precipitated proteins were pelleted, were placed in vials containing Hydrofluor and then were counted in a scintillation counter. CPM from TCA precipitated supernatants not reacted with bacterial collagenase were subtracted from each culture. The resulting CPM was a reflection of the collagen produced by that culture.
A modified Peterofsky-Diegelmann assay was used to screen peptide samples for their ability to stimulate or inhibit collagen production. Low passage (4-12 subpassages) infant foreskin fibroblast were plated out at a density of 10^5 cells/well of Falcon 3008 multiwell plates in complete maintenance medium containing 10% FCS. After cells reached confluency (72 hr) the medium was changed daily for 3 days, each time being replaced with serum-free maintenance medium containing fresh ascorbic acid. Samples ([…]) were added to triplicate wells containing […] serum free MEM supplemented with fresh ascorbic acid and [^3 H]-proline (sp. act. 20 Ci/mmole), but no non-essential amino acids. After an additional 24 hours of culture, supernatants were reacted with protease-free bacterial collagenase to digest all collagen. Similar aliquots of unreacted supernatants and bacterial collagenase-treated supernatants were precipitated with cold 10% trichloroacetic acid (TCA) and were centrifuged for 5 minutes in a Beckman microfuge. Aliquots of the supernatants, after TCA precipitated proteins were pelleted, were placed in vials containing Hydrofluor and then were counted in a scintillation counter. CPM from TCA precipitated supernatants not reacted with bacterial collagenase were subtracted from each culture. The resulting CPM was a reflection of the collagen produced by that culture.
Collagen production was measured following administration of the various 7-mer peptides 368-374 (SEQ ID NOs. 1-5) to fibroblasts. Peptides […] (SEQ ID NO. 1), LYYIGKT (SEQ ID NO. 2), LYYVGRT (SEQ ID NO. 3), IYYVGRN (SEQ ID NO. 4) and IYYVGRT (SEQ ID NO. 5) were synthesized by the Merrifield technique, purified by HPLC, and tested at different concentrations in the same assay for their ability to stimulate production of collagen in confluent cultures of infant foreskin fibroblasts. Collagen production was measured by incorporation of [^3 H]proline into collagenase-sensitive protein. All samples were tested in triplicate, and values represent the mean of triplicate determinations. Data are expressed as "% stimulation" of collagen production relative to control production in cultures with plain culture medium only added. […]

[4] = test system: Human peripheral blood neutrophils; assay: Neutrophil chemotaxis in modified Boyden chambers; format: cell-based; settings: peptide in lower compartment of modified Boyden chamber
Excerpt: as §1

| Substance | Mean Monocytes per 20 OIF + SEM ([1]; Media added to upper compartment) | Mean Monocytes per 20 OIF + SEM ([1]; TGF-β1 (50 pg/ml) added to upper compartment) | monocyte chemotaxis / migration (in words) [1] | monocyte chemotaxis / migration (in words) ([1]; listed as VYYVGRK) | FIBROBLAST EFFECTS HLA-DR [2] | collagen production by fibroblasts (in words) [3] | neutrophil chemotaxis / migration (in words) [4] |
| --- | --- | --- | --- | --- | --- | --- | --- |
| VYYVGRK [Peptide 368-374, 7-mer corresponding to amino acids 368-374 of TGF-β1] | 138 ± 8 Monocytes per 20 OIF | 50 ± 5 Monocytes per 20 OIF | induced migration of fibroblasts, monocytes and neutrophils in a dose dependent fashion | induced monocyte chemotaxis at all of the concentrations tested | NE | stimulated to some degree; also recorded: does stimulate fibroblast chemotaxis and synthesis of collagen and hyaluronic acid | induced migration of fibroblasts, monocytes and neutrophils in a dose dependent fashion |
| PLPIVYYVGRKPKVE [Peptide 364-378, 15-mer peptide 364-378 of TGF-β1] | – | – | induced migration of fibroblasts, monocytes and neutrophils in a dose dependent fashion | – | NE | stimulated to some degree | induced migration of fibroblasts, monocytes and neutrophils in a dose dependent fashion |
| 340-391: synthetic peptide corresponding to sequence 340-391 of TGF-β1; positive chemotactic control (VLALYNQHNPGASAAPCCVPQALEPLPIVYYVGRKPKVEQLSNMIVRSCKCS; printed: Val Leu Ala Leu Tyr Asn Gln His Asn Pro Gly Ala Ser Ala Ala Pro Cys Cys Val Pro Gln Ala Leu Glu Pro Leu Pro Ile Val Tyr Tyr Val Gly Arg Lys Pro Lys Val Glu Gln Leu Ser Asn Met Ile Val Arg Ser Cys Lys Cys Ser) [Peptide 340-391] | – | – | migrated in a dose dependent fashion | – | NE | stimulated to some degree | migrated in a dose dependent fashion |
| YSKVLALYNQHNPGASAAPC (YSKVLALYNQHNPGASAAPC) [Peptide 337-356] | – | – | – | – | NE | stimulated to some degree | – |
